Experiments:
Test in all cases: Test C greenhouse herbicide test, pre- and postemergence
Assay type in all cases: in vivo
[1] = system: waterhemp (common waterhemp, Amaranthus rudis)
Source text: (§1) Seeds of plant species selected from blackgrass (Alopecurus myosuroides), ryegrass, Italian (Italian ryegrass, Lolium multiflorum), wheat (winter wheat, Triticum aestivum), galium (catchweed bedstraw, Galium aparine), corn (Zea mays), large crabgrass, large (large crabgrass, Digitaria sanguinalis), foxtail, giant (giant foxtail, Setaria faberii), johnsongrass (Sorghum halepense), lambsquarters (Chenopodium album), morningglory (Ipomoea coccinea), nutsedge, yellow (yellow nutsedge, Cyperus esculentus), pigweed (Amaranthus retroflexus), ragweed (common ragweed, Ambrosia elatior), soybean (Glycine max), barnyardgrass (Echinochloa crus-galli), oilseed rape (Brassica napus), waterhemp (common waterhemp, Amaranthus rudis), and velvetleaf (Abutilon theophrasti) were planted into a blend of loam soil and sand and treated preemergence with test chemicals formulated in a non-phytotoxic solvent mixture which included a surfactant.
(§2) At the same time, plants selected from these crop and weed species and also chickweed (common chickweed, Stellaria media), kochia (Kochia scoparia), and oat, wild (wild oat, Avena fatua), were planted in pots containing Redi-Earth® planting medium (Scotts Company, 14111 Scottslawn Road, Marysville, Ohio 43041) comprising spaghnum peat moss, vermiculite, wetting agent and starter nutrients and treated with postemergence applications of test chemicals formulated in the same manner. Plants ranged in height from 2 to 18 cm (1- to 4-leaf stage) for postemergence treatments. Treated plants and controls were maintained in a greenhouse for 13 to 15 d, after which time all species were compared to controls and visually evaluated. Plant response ratings, summarized in Table C, are based on a scale of 0 to 100 where 0 is no effect and 100 is complete control. A dash (-) response means no test result.

[2] = system: oilseed rape (Brassica napus)
Source text: as §1, §2

[3] = system: corn (Zea mays)
Source text: as §1, §2

[4] = system: blackgrass (Alopecurus myosuroides)
Source text: as §1, §2

[5] = system: galium (catchweed bedstraw, Galium aparine)
Source text: as §1, §2

[6] = system: pigweed (Amaranthus retroflexus)
Source text: as §1, §2

[7] = system: ryegrass, Italian (Italian ryegrass, Lolium multiflorum)
Source text: as §1, §2

[8] = system: nutsedge, yellow (yellow nutsedge, Cyperus esculentus)
Source text: as §1, §2

[9] = system: morningglory (Ipomoea coccinea)
Source text: as §1, §2

[10] = system: crabgrass, large (large crabgrass, Digitaria sanguinalis)
Source text: as §1, §2

[11] = system: barnyardgrass (Echinochloa crus-galli)
Source text: as §1, §2

[12] = system: lambsquarters (Chenopodium album)
Source text: as §1, §2

[13] = system: foxtail, giant (giant foxtail, Setaria faberii)
Source text: as §1, §2

[14] = system: johnsongrass (Sorghum halepense)
Source text: as §1, §2

[15] = system: velvetleaf (Abutilon theophrasti)
Source text: as §1, §2

[16] = system: ragweed (common ragweed, Ambrosia elatior)
Source text: as §1, §2

[17] = Postemergence, 31 g ai/ha, 0 to 100 scale (0 no effect, 100 complete control)
[18] = Postemergence, 125 g ai/ha, scale 0 to 100, 0 is no effect, 100 is complete control
[19] = Postemergence, 250 g ai/ha, scale 0 to 100, 0 no effect, 100 complete control, 13 to 15 d
[20] = Preemergence, 31 g ai/ha, scale 0 to 100, 0 is no effect, 100 is complete control
[21] = Preemergence, 62 g ai/ha, scale 0 to 100, 0 is no effect, 100 is complete control
[22] = Preemergence, 125 g ai/ha, scale 0 to 100, 0 is no effect, 100 is complete control
[23] = Preemergence, 250 g ai/ha, scale 0 to 100 (0 no effect, 100 complete control)
[24] = postemergence, 62 g ai/ha, scale 0 to 100, 0 no effect, 100 complete control

Cc1ccc2ccc(C)c(-c3c(O)c(C)nn(C)c3=O)c2c1 [Compound 60]
70: Plant response rating, Foxtail, Giant [13, 18]
0: Plant response rating, Corn [3, 20]
98: Plant response rating, Waterhemp [1, 18] | Plant response rating, Waterhemp [1, 19] | Plant response rating, Galium [5, 22] | Plant response rating, Pigweed [6, 19] | Plant response rating, Morningglory [9, 21] | Plant response rating, Morningglory [9, 22] | Morningglory plant response rating [9, 24] | Velvetleaf plant response rating [15, 23] | Plant response rating, Ragweed [16, 18]
35: Plant response rating, Corn [3, 19] | Crabgrass, Large plant response rating [10, 24] | Plant response rating, Barnyardgrass [11, 18] | Johnsongrass plant response rating [14, 24]
5: Oilseed Rape plant response rating [2, 17] | Oilseed Rape plant response rating [2, 24] | Johnsongrass plant response rating [14, 17] | Plant response rating, Johnsongrass [14, 20]
15: Crabgrass, Large plant response rating [10, 17]
55: Plant response rating, Johnsongrass [14, 18]
85: Plant response rating, Oilseed Rape [2, 18] | Plant response rating, Oilseed Rape [2, 21] | Plant response rating, Blackgrass [4, 18] | Pigweed plant response rating [6, 17] | Pigweed plant response rating [6, 24] | Nutsedge, Yellow plant response rating [8, 17] | Plant response rating, Nutsedge, Yellow [8, 22] | Nutsedge, Yellow plant response rating [8, 23] | Nutsedge, Yellow plant response rating [8, 24] | Plant response rating, Morningglory [9, 20] | Plant response rating, Crabgrass, Large [10, 22] | Plant response rating, Barnyardgrass [11, 22] | Lambsquarters plant response rating [12, 17] | Plant response rating, Lambsquarters [12, 21] | Plant response rating, Foxtail, Giant [13, 21] | Plant response rating, Velvetleaf [15, 21] | Velvetleaf plant response rating [15, 24] | Ragweed plant response rating [16, 17]
100: Plant response rating, Waterhemp [1, 20] | Plant response rating, Waterhemp [1, 21] | Plant response rating, Waterhemp [1, 22] | Waterhemp plant response rating [1, 23] | Galium plant response rating [5, 17] | Plant response rating, Galium [5, 18] | Plant response rating, Galium [5, 19] | Galium plant response rating [5, 23] | Galium plant response rating [5, 24] | Plant response rating, Pigweed [6, 20] | Plant response rating, Pigweed [6, 21] | Plant response rating, Pigweed [6, 22] | Pigweed plant response rating [6, 23] | Plant response rating, Morningglory [9, 18] | Plant response rating, Morningglory [9, 19] | Morningglory plant response rating [9, 23] | Plant response rating, Lambsquarters [12, 19] | Plant response rating, Foxtail, Giant [13, 22] | Foxtail, Giant plant response rating [13, 23] | Plant response rating, Ragweed [16, 19]
90: Waterhemp plant response rating [1, 24] | Plant response rating, Oilseed Rape [2, 22] | Oilseed Rape plant response rating [2, 23] | Plant response rating, Blackgrass [4, 19] | Plant response rating, Blackgrass [4, 20] | Plant response rating, Blackgrass [4, 21] | Plant response rating, Blackgrass [4, 22] | Blackgrass plant response rating [4, 23] | Plant response rating, Galium [5, 20] | Ryegrass, Italian plant response rating [7, 17] | Plant response rating, Ryegrass, Italian [7, 20] | Ryegrass, Italian plant response rating [7, 24] | Plant response rating, Nutsedge, Yellow [8, 18] | Morningglory plant response rating [9, 17] | Barnyardgrass plant response rating [11, 23] | Lambsquarters plant response rating [12, 23] | Lambsquarters plant response rating [12, 24] | Plant response rating, Foxtail, Giant [13, 19] | Plant response rating, Velvetleaf [15, 18] | Plant response rating, Ragweed [16, 21] | Ragweed plant response rating [16, 24]
45: Corn plant response rating [3, 23] | Plant response rating, Nutsedge, Yellow [8, 20] | Plant response rating, Nutsedge, Yellow [8, 21] | Foxtail, Giant plant response rating [13, 17] | Plant response rating, Johnsongrass [14, 19]
95: Plant response rating, Galium [5, 21] | Plant response rating, Pigweed [6, 18] | Plant response rating, Ryegrass, Italian [7, 18] | Plant response rating, Ryegrass, Italian [7, 19] | Plant response rating, Ryegrass, Italian [7, 21] | Plant response rating, Ryegrass, Italian [7, 22] | Ryegrass, Italian plant response rating [7, 23] | Plant response rating, Nutsedge, Yellow [8, 19] | Crabgrass, Large plant response rating [10, 23] | Plant response rating, Lambsquarters [12, 18] | Plant response rating, Lambsquarters [12, 22] | Plant response rating, Velvetleaf [15, 19] | Plant response rating, Velvetleaf [15, 22] | Plant response rating, Ragweed [16, 22] | Ragweed plant response rating [16, 23]
50: Blackgrass plant response rating [4, 17] | Plant response rating, Crabgrass, Large [10, 18]
80: Plant response rating, Oilseed Rape [2, 19] | Plant response rating, Lambsquarters [12, 20] | Plant response rating, Ragweed [16, 20]
25: Corn plant response rating [3, 24] | Barnyardgrass plant response rating [11, 24]
40: Plant response rating, Barnyardgrass [11, 21] | Plant response rating, Johnsongrass [14, 22] | Velvetleaf plant response rating [15, 17]
30: Plant response rating, Oilseed Rape [2, 20] | Plant response rating, Corn [3, 18] | Plant response rating, Corn [3, 22]
75: Plant response rating, Crabgrass, Large [10, 21] | Plant response rating, Foxtail, Giant [13, 20] | Plant response rating, Velvetleaf [15, 20]
65: Waterhemp plant response rating [1, 17] | Plant response rating, Crabgrass, Large [10, 19] | Plant response rating, Barnyardgrass [11, 19]
20: Plant response rating, Crabgrass, Large [10, 20] | Barnyardgrass plant response rating [11, 17] | Plant response rating, Johnsongrass [14, 21]
60: Blackgrass plant response rating [4, 24] | Foxtail, Giant plant response rating [13, 24] | Johnsongrass plant response rating [14, 23]
10: Corn plant response rating [3, 17] | Plant response rating, Corn [3, 21] | Plant response rating, Barnyardgrass [11, 20]
